Patent US11505580B2, “Leech polypeptide and use thereof” (priority 2019, dated 2022)
Where no end group is shown, it is not given here.

Columns and labels:
Type in all cases: cell-based
macrophages RAW264.7 = test: Transwell migration assay, LPS-induced macrophage RAW264.7 migration; conditions: 800 μg/mL, 1 μg/mL LPS
Excerpt: In this example, a leech zymolyte HE was firstly prepared from […] by enzymolysis. […] Then, HE was separated and purified by chromatography on QSepharose FF strong basic anion exchange column, and chromatography on Superdex30, Superdexpeptide and G10 gel column, and Transwell assay was done to track the activity. Finally leech polypeptide HE4-1 having activity to inhibit the migration of macrophages RAW264.7 was obtained. Transwell migration assay was used to detect the activity of HE1-HE6 in inhibiting the macrophage migration. […] Transwell assay was used to detect the inhibition of HE-D on the migration activity of macrophages RAW264.7. The experiments were divided into five groups, including a blank control group, an LPS model group and 200, 400, 800 μg/mL HE-D groups.

JNK = test: Western-blot of JNK signaling pathway in LPS-induced RAW264.7 cells; conditions: RAW264.7 induced with LPS
Description: (§1) The mechanism of HE-D inhibiting macrophages RAW264.7 was tested by Western-blot.

IL-1 = test: ELISA of IL-1 secretion by macrophages RAW264.7; conditions: 0-800 μg/mL
Excerpt: (§2) The effect of HE-D on the secretion of IL-1, IL-6, IL-12, and TNF-α by macrophages RAW264.7 was detected by ELISA.

p38 = test: Western-blot of p38 signaling pathway in LPS-induced RAW264.7 cells; conditions: RAW264.7 induced with LPS
Description: as §1

IL-12 = test: ELISA of IL-12 secretion by macrophages RAW264.7; conditions: 0-800 μg/mL
Excerpt: as §2

TNF-α = test: ELISA of TNF-α secretion by macrophages RAW264.7; conditions: 400 and 800 μg/mL
Excerpt: as §2

IL-6 = test: ELISA of IL-6 secretion by macrophages RAW264.7; conditions: 0-800 μg/mL
Excerpt: as §2

macrophage RAW264.7 [1] = test: Lysozyme activity assay; conditions: 0-800 μg/mL
Description: (§3) The effects of HE-D on the phagocytosis ability and lysozyme activity of macrophage RAW264.7 were measured by neutral red phagocytosis test and lysozyme activity assay.

macrophage RAW264.7 [2] = test: Neutral red phagocytosis test; conditions: 0-800 μg/mL
Description: as §3

Sequence | inhibition rate of LPS-induced migration of macrophages RAW264.7 (macrophages RAW264.7) | LPS-induced increase in expression level of phosphorylated JNK protein (JNK; 800 μg/mL) | expression of JNK protein (JNK) | secretion of IL-1 (IL-1) | LPS-induced increase in expression level of phosphorylated p38 protein (p38; 800 μg/mL) | expression of total p38 protein (p38) | secretion of IL-12 (IL-12) | promotion effect on secretion of TNF-α (TNF-α) | secretion of TNF-α (TNF-α) | secretion of IL-6 (IL-6) | lysozyme activity of macrophages RAW264.7 (macrophage RAW264.7 [1]) | phagocytosis ability of macrophages RAW264.7 (macrophage RAW264.7 [2])
EAGSAKELEGDPVAG [HE4-1, leech polypeptide isolated and purified from HE4 by Superdex30, Superdexpeptide and G10 gel chromatography] | 15.2% |  |  |  |  |  |  |  |  |  |  | 
EAGSAKELEGDPVAG [HE-D] | 14.9% | significantly inhibit the increase | no significant effect | no significant effect | significantly inhibit the increase | no significant effect | no significant effect | 11.4% | promote the secretion | no significant effect | no obvious effect | no obvious effect
